Source: PubChem BioAssay (NCI)
Several values for one entry are separate records, joined by “and”; a condition that tells them apart may be missing. Equal entries are not always repeated.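 All cell lines were grown in 96-well plates and treated with compound for 48 hours. GI50: concentration for 50% inhibition of growth. TGI is the concentration that stops growth completely.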

What was measured:
Assay in all cases: inhibition of tumour cell growth, NCI panel, 48 h
[1] = system: SNB-75 CNS
[2] = system: U251 CNS
[3] = system: 786-0 renal
[4] = system: CCRF-CEM leukemia
[5] = system: SF-539 CNS
[6] = system: CAKI-1 renal
[7] = system: A498 renal
[8] = system: SF-295 CNS
[9] = system: MDA-MB-231 breast
[10] = system: SK-OV-3 ovarian

SMILES	GI50 [1] [nM]	TGI [1] [nM]	GI50 [2] [nM]	TGI [2]	GI50 [3] [nM]	TGI [3] [nM]	GI50 [4] [nM]	TGI [4]	GI50 [5] [nM]	TGI [5] [nM]	GI50 [6] [nM]	GI50 [7]	TGI [7]	GI50 [8] [nM]	TGI [8] [nM]	GI50 [9]	TGI [9]	GI50 [10]	TGI [10]	TGI [6] [nM]
C[C@]12CC[C@@H]3c4ccc(OC(=O)N(CCCl)CCCl)cc4CC[C@H]3[C@@H]1CC[C@@H]2O	2480	15100	2580	13800 nM and 26900 nM	2830	13700	1210	6830 nM and 3450 nM	1690	4270	2440	1600 nM	9000 nM	819	4140	2590 nM	8290 nM	4710 nM	36800 nM and 7950 nM	–
COC12C=C/C(=C(/C(=O)OCc3cncnc3)C(=O)CCCCCCCCC3(OC)C=C/C(=C(/C(=O)OCc4cncnc4)C(=O)CCCCCCCC1)O3)O2	1190	6840	212	1060 nM	433	1470	196	3790 nM	952	2470	667	961 nM	1700 nM	326	1740	597 nM	> 50000 nM	1230 nM	5310 nM	2110
C/C=C(\C)C(=O)NC1=CC[C@@]2(C)C(=CCC3C2CC[C@@]2(C)C3CC[C@@H]2C(C)N(C)C)C1=O (some centres undefined)	5220	28400	4340	23300 nM	2540	7450	2580	15300 nM	1620	3220	2860	2030 nM	18200 nM	2320	7330	3140 nM	9990 nM	11600 nM	29800 nM	11400
C[C@@]1(C(=O)O)CCC[C@]2(C)C1CC[C@@]13CC(=O)[C@@](CO)(CC[C@]12O)C3 (some centres undefined)	> 100000	> 100000	> 100000	> 100000 nM	> 100000	> 100000	> 100000	> 100000 nM	> 100000	> 100000	> 100000	19700 nM	> 100000 nM	> 100000	> 100000	> 100000 nM	> 100000 nM	21300 nM	> 100000 nM	> 100000
CC[C@@H]1c2c(C#N)ncn2-c2cnc(Nc3ccc(C(=O)NC4CCN(C5CCN(CC6CC6)CC5)CC4)cc3OC)nc2N1C1CCCC1	45.2	1260	42	1480 nM	164	1200	7.38	1580 nM	49.3	888	1620	174 nM and 308 nM	1170 nM and 1570 nM	45.4	1940	63.1 nM and 38.2 nM	1310 nM and 219 nM	38.4 nM and 122 nM	1040 nM and 1640 nM	3880
CSC(=Nc1nnc(-c2ccc([N+](=O)[O-])cc2)s1)SC	–	33600	–	58100 nM	–	55500	–	> 100000 nM	–	44500	–	–	64600 nM	–	50000	–	> 100000 nM	–	62400 nM	38400
